# Experimental data as given in patent publication US20090068143A1, “ORALLY EFFECTIVE C[…]” (priority 2005, published 2009).
# Where two headings read alike, the source gives them in different places.
# Assays:
# visceral pain = assay: Visceral pain, acetic acid induced writhing responses; assay type: in vivo, ICR mice; conditions: for inhibition of pain response as compared to untreated animals: 10 mg/kg p.o. in phosphate buffer; for reduction of writhing responses as compared to vehicle treated animals: second study; for effect of antagonist alone on number of writhing responses: 1 mg/kg i.v.; for activity in visceral pain model: fumaric acid up to 5 mg/kg, Gabapentin up to 200 mg/kg, celecoxib up to 10 mg/kg
# Experimental: For the i.v. part of the study, compounds were dissolved in CREMOPHOR®:Ethanol and diluted 1:20 in saline prior to injection, fifteen minutes before pain induction. When compounds were delivered per os, they were dissolved in phosphate buffer or in CREMOPHOR®:Ethanol as previously described and administered 1 hour before pain induction. Each treatment group, except for controls comprising at least 30 animals, was composed of at least 6 animals. Fifteen or sixty minutes later, depending on the route selected for drug administration, the mice were injected i.p. with 10 ml/kg of 0.6% acetic acid and the number of visceral pain related behaviors (writhing, stretching, contractions of the abdomen accompanied by an elongation of the body and extension of the hind limbs) is counted over a period of 5 minutes, starting 5 minutes after the acetic acid administration. These visceral pain related behaviors are globally defined as writhing responses (WR). The results are expressed as mean number of writhing responses±SEM. Data were analyzed using analysis of variance (ANOVA) followed by post-hoc Fisher test. A value of p<0.05 was considered to be statistically significant and is indicated on the figure by an asterisk over the relevant treatment group.
# The following results were obtained at 2 mg/kg i.v. of test compounds or, in the case of the study performed with cannabinoid receptor antagonists, 1 mg/kg test compound or antagonist alone and 1 mg/kg test compound+1 mg/kg antagonist. In a separate study, it was shown that analgesic activity of compounds of the invention was dose related.
# CB2 receptor = CB2 receptor (Homo sapiens, UniProt P34972); assay: CB2 binding assay
# CB1 receptor = CB1 receptor (Homo sapiens, UniProt P21554); assay: CB1 binding assay
# inflammatory pain = assay: Inflammatory pain and paw edema, λ carrageenan; assay type: in vivo, Sprague Dawley rats
# Experimental: Male Sprague Dawley rats (average body weight 200 g, Harlan, Israel) were transiently sedated by placement on dry ice for the duration of the injections. Rats were injected subcutaneously, in the subplantar region of one (right) paw with 0.1 ml of 2% w/v λ Carrageenan in sterile saline. […] Test compounds were administered p.o. by oral gavage immediately after the carrageenan injection as pretreatment. Vehicle (PB) treated animals were used as controls. Before induction of inflammatory pain and three hours after injection, the animals reactions to pain stimuli were tested in two systems. The first stimulus was thermal and assessed by the Plantar Test according to Hargreaves, using Ugo Basile Model 7370. The scale was set to an intensity of 50 arbitrary units. The latency time till the animal lift a paw as a reaction to the thermal stimulus was recorded for both the inflamed and non-inflamed hind paws. The second stimulus was mechanical (tactile) and assessed using a Dynamic Plantar Sesthesiomether (Ugo Basile Model 73400-002). […] Finally, the impact on paw edema was assessed. Paw thickness is measured using a dial thickness gauge (Spring-dial, constant low pressure gauge, Mitutoyo, TG/L-1, 0.00 mm) and paw volume is measured using a plethysmometer (model #7150, Ugo Basile, Italy). At the end of the study, animals were euthanized with an i.p. injection of 100 mg/kg pentobarbitone.
# The results are measured as the differences between the two hind paws at time 0 and 3 hours both as ALT, for the latency time in the thermal part of the study, and as ΔForce, for the mechanical part of the study. The paw volume is expressed as percent from vehicle treated animals. Results are expressed as mean±SEM for each treatment group and the differences among those groups are analyzed by analysis of variance (ANOVA) followed by post-hoc Tukey's test. A value of p<0.05 was considered to be statistically significant and is indicated on the figure by an asterisk over the relevant treatment group.
# MBP induced acute EAE = assay: MBP induced acute EAE; assay type: in vivo, Lewis rats; conditions: 30 mg/kg i.v. daily for 5 consecutive days from day of disease induction
# Experimental: In the present study, EAE was induced by injection of Myelin Basic Protein (MBP), a method known to model the acute phase of MS. In this model the onset of the disease is observed by the appearance of clinical symptoms about 10 days after induction. The disease progresses and the clinical score increases and peaks around day 15 and spontaneous recovery is observed around day 23 after induction of the disease.
# Female Lewis rats (average body weight 130-180 g, Harlan, Israel) were injected s.c. into the hind paws with 25 μg of purified guinea pig myelin basic protein (MBP, Sigma) emulsified in 0.1 ml of Complete Freund's Adjuvant (Difco). Animals were maintained on a 12 hours light/12 hours dark regimen, at a constant temperature of 22° C., with food and water ad libitum. Starting from day 8 following induction, animals were followed up on a daily basis. The results are recorded as clinical score; score of 0 indicates a normal animal with no clinical signs, 0.5 indicates a loss of tonicity in the tail's distal part, 1 indicates whole tail paralysis, 1.5 indicates hind legs weakness in one leg, 2 indicates hind legs weakness in two legs, 2.5 indicates fore legs paralysis in one leg, 3 indicates paralysis of all four legs, 4 indicates complete body paralysis and moribund state and 5 indicates death. The clinical score of the animals is recorded for 15 days following onset of disease until the end of the study 25 days following induction and the area under the curve (AUC) is calculated over this period of time.
# Few routes of administration were assessed and the treatments were either administered intravenously (in CE vehicle) or orally by gavage (in PB vehicle) at volume dose of 5 ml/kg.
# Results are expressed as mean±SEM and the differences between the treatment groups were analyzed by analysis of variance (ANOVA) followed by Tukey's post hoc test. A value of p<0.05 was considered to be statistically significant and is indicated on the figure by an asterisk over the relevant treatment group.
# Compound 18A was dissolved in CREMOPHOR EL®:ethanol and further diluted in physiological buffer prior to i.v. administration. It is now disclosed that compound 18F could be dissolved directly in 80 mM phosphate buffer (pH 6.4) and administered p.o. Compound 18F was administered by oral gavage at doses of 20, 30, 40, 50 and 60 mg/kg to animals showing clinical signs of the disease. Each treatment group comprised at least 10 animals at onset of disease. At some doses, experiments were repeated up to four times.
# [1] = test system: Taxol® induced neuropathic pain; assay: Taxol® induced neuropathic pain; assay type: in vivo, Sprague Dawley rats; conditions: gabapentin 100 mg/kg i.p., morphine 5 mg/kg i.p.; not statistically significant
# Experimental: Male Sprague Dawley rats (average body weight 150-200 g, Harlan, Israel) were administered i.p. with 6 mg/kg Taxol® (Bristol Myers Squibb, USA) every other day for 9 days. On day 13, baseline pain threshold was measured. One hour later, the animals were administered with 5 ml/kg i.p. of vehicle (PB) only and pain threshold was re-established. After an additional hour animals were treated with various doses of compound 18F ranging from 0.5 mg/kg up to 10 mg/kg administered i.p. Morphine at 5 mg/kg i.p. and gabapentin at 100 mg/kg i.p served as positive controls. Each treatment group comprised at least eight animals. One hour post drug administration pain threshold was monitored using thermal and mechanical stimuli as previously described. At the end of the study, rats were euthanized with sodium pentobarbitone 100 mg/kg i.p. Sample rats were then transfused with saline and heparinized 4% formaldehyde solution. The L4-L5 area of the spinal cord and the sciatic nerve were taken for histopathology assessment.
# The time latencies for thermal hyperalgesia, and force needed to induce pain of the different treatment groups are compared, using one way ANOVA (analysis of variance), followed by Duncan's post hoc test. A p<0.05 value was considered statistically significant and is indicated on the figure by an asterisk over the relevant treatment group.
# iNOS = iNOS gene expression in LPS activated RAW 264.7 macrophages (real-time RT-PCR); assay type: cell-based, mouse; conditions: 10 μM, 1 h pre-treatment, 3 hrs after LPS activation
# Experimental: RAW 264.7 macrophages, a mouse cell line (ATCC # TIB 71), were grown in Dulbecco's modified Eagle's medium (DMEM) with 4 mM L-glutamine adjusted to contain 1.5 g/L sodium bicarbonate, 4.5 g/L glucose, and 10% heat inactivated fetal bovine serum. Cells were grown in tissue culture flasks and seeded at appropriate density into 6 wells tissue culture plates. Four million Raw cells in half a milliliter were stimulated with 1 μg/ml Lipopolysaccharide E. coli 055:B5 (DIFCO Laboratories). The mouse macrophages were pre-treated for one hour with controls or 10 μM of test compounds, and later on activated with LPS. RNA samples were extracted from the cells 3 hrs after activation and iNOS gene expression levels were analyzed by real-time RT-PCR as previously described. For western blot analysis, compounds were tested at 1, 5 and 10 μM and cells were harvested 24 hrs after LPS stimulation. Supernatant were collected and NO secretion was analyzed using ELISA. Cells were washed 3 times with cold PBS, scrapped and lyzed in 100 μl cell lysis buffer containing 20 mM HEPES, pH 7.6, 150 mM NaCl, 1.5 mM MgCl2, 0.2 mM EDTA, 1% Triton X-100, 10% glycerol, 1 mM DTT, 1 mM PMSF, 10 μg/ml aprotinin. 5 µg/ml leupeptin, 10 mM p-nitrophenyl phosphate, 100 mM β-glycerophosphate, 1 mM sodium fluoride, and 0.1 μM sodium orthovanadate. Cells were lyzed on ice for 10 minutes before further processing.
# The results of this experiment are expressed as fold activation of iNOS over non-activated macrophages, after normalization to cyclophilin A expression. Compound 18A inhibits 63% of iNOS gene expression, and compounds 18B, 18E and 18F inhibit 55%, 25% and 100% respectively. […] This surprising observation strengthen the fact that compounds of the invention, though chemically related, have distinct and unexpected properties.
# CB2 receptor, sequence (P34972 whole entry): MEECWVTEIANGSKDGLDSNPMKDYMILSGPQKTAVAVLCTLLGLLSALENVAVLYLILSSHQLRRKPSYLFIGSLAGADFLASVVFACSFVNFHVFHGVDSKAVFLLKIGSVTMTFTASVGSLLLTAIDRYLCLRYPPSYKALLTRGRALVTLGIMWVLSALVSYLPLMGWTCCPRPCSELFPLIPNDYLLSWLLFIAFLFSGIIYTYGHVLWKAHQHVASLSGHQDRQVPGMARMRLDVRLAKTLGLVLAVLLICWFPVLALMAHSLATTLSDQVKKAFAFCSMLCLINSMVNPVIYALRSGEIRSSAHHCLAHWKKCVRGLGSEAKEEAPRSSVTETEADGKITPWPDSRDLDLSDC
# CB1 receptor, sequence (P21554 whole entry): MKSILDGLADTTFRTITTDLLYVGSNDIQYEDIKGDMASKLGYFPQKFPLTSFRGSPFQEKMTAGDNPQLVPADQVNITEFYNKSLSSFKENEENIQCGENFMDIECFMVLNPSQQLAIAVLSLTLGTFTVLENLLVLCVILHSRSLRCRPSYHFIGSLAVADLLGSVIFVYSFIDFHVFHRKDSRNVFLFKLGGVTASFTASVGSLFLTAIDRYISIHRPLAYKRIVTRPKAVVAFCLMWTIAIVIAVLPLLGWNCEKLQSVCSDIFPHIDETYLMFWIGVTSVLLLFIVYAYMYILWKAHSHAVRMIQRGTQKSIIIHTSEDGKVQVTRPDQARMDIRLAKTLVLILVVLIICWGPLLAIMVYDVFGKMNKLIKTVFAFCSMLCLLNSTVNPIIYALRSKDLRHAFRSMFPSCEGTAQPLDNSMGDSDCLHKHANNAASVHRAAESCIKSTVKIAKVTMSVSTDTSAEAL
compound,measurement,setting,value
"CCCCCCC(C)(C)c1cc(OC(=O)CCC(=O)O)c([C@H]2CC(=O)C3CC2C3(C)C)c(OC(=O)CCC(=O)O)c1 (single isomer, unassigned; (-)) [Compound 18C, (−)-4-{4-[1,1-dimethylheptyl]-2,6-disuccinate-phenyl}-6,6-dimethyl-bicyclo[3.1.1]heptan-2-one]",inhibition of pain response as compared to untreated animals,visceral pain,93%
same,IC50,CB2 receptor,0.00152 µM
same,IC50,CB1 receptor,0.117 µM
"CCCCCCC(C)(C)c1cc(OP(=O)(OCC)OCC)c([C@H]2CC(=O)C3CC2C3(C)C)c(OP(=O)(OCC)OCC)c1 (single isomer, unassigned; (-)) [Compound 18D, (−)-4-{4-[1,1-dimethylheptyl]-2,6-bi-diethylphosphate-phenyl}-6,6-dimethyl-bicyclo[3.1.1]heptan-2-one]",inhibition of writhing responses as compared to vehicle treated group,visceral pain; 2 mg/kg i.v.,minimal effect
same,IC50,CB2 receptor,> 1 µM
same,IC50,CB1 receptor,> 1 µM
"CCCCCCC(C)(C)c1cc(OC(=O)/C=C/C(=O)O)c(C2CC(=O)[C@H]3C[C@@H]2C3(C)C)c(OC(=O)/C=C/C(=O)O)c1 (single isomer, unassigned; (-)) [Compound 18G, (−)-4-{4-[1,1-Dimethylheptyl]-2,6-difumarate-phenyl}-6,6-dimethyl-bicyclo[3.1.1]heptan-2-one]","paw volume, percent of vehicle",inflammatory pain; 20 mg/kg p.o.,96%
same,"reduction of ΔLT, thermal stimulus",inflammatory pain; 20 mg/kg p.o.,ineffective
same,"reduction in Δforce, mechanical stimulus",inflammatory pain; single dose of 20 mg/kg p.o.,8%
same,inhibition of writhing responses as compared to vehicle treated group,visceral pain; 2 mg/kg i.v.,91%
same,inhibition of pain response as compared to untreated animals,visceral pain,56%
same,IC50,CB2 receptor,0.03 µM
same,IC50,CB1 receptor,0.325 µM
"CCCCC(C)(C)c1cc(O)c([C@H]2CC(=O)C3CC2C3(C)C)c(OC(=O)/C=C/C(=O)O)c1 (single isomer, unassigned; (-)) [Compound 18H, (−)-4-{4-[1,1-Dimethylpentyl]-2-fumarate-6-hydroxy-phenyl}-6,6-dimethyl-bicyclo[3.1.1]heptan-2-one]",inhibition of writhing responses as compared to vehicle treated group,visceral pain; 2 mg/kg i.v.,38%
same,inhibition of pain response as compared to untreated animals,visceral pain,not effective
"Oc1cc2c(cc1O)CN(C(=S)NCCc1ccc(Cl)cc1)CCC2 [CPZ, Capsazepine, reference compound]",reduction of writhing responses as compared to vehicle treated animals,visceral pain; 0.5 mg/kg i.v.,no activity
same,reduction of writhing responses as compared to vehicle treated animals,visceral pain; 2 mg/kg i.v.,67%
"Cc1c(C(=O)NN2CCCCC2)nn(-c2ccc(Cl)cc2Cl)c1-c1ccc(Cl)cc1 [SR141716A, reference compound]",effect of antagonist alone on number of writhing responses,visceral pain,had not effect
"Cc1ccc(-c2cc(C(F)(F)F)nn2-c2ccc(S(N)(=O)=O)cc2)cc1 [celecoxib, reference compound]",activity in visceral pain model,visceral pain,inactive
"O=C(O)/C=C/C(=O)O [fumaric acid, reference compound]",activity in visceral pain model,visceral pain,inactive
"C[C@H]1C[C@@H]2[C@H]([C@@H](O)C[C@@]3(C)[C@H]2CC[C@]3(O)C(=O)CO)[C@@]2(C)C=CC(=O)C=C12 [methylprednisolone, reference compound]",reduction in AUC of clinical score,MBP induced acute EAE,34%
"CN1CC[C@]23c4c5ccc(O)c4O[C@H]2[C@@H](O)C=C[C@H]3[C@H]1C5 [morphine, reference compound]",effect on pain threshold,[1],trend of increasing the pain threshold
"(−)-4-{4-[1,1-Dimethylpentyl]-2-succinate-6-hydroxy-phenyl}-6,6-dimethyl-bicyclo[3.1.1]heptan-2-one [Compound 18E]",inhibition of iNOS gene expression,iNOS,25%
same,inhibition of writhing responses as compared to vehicle treated group,visceral pain; 2 mg/kg i.v.,minimal effect
same,inhibition of pain response as compared to untreated animals,visceral pain,not effective
same,IC50,"CB2 receptor; read-out: CB2 IC50, displacement of radioligand",0.0074 µM
same,IC50,"CB1 receptor; read-out: CB1 IC50, displacement of radioligand",0.315 µM
SR144528 [reference compound],effect of antagonist alone on number of writhing responses,visceral pain,had not effect
